Laboratory results taken from patent US9988430B2, “Stable GLP-1 based GLP-1/glucagon receptor co-agonists” (Novo Nordisk A/S, priority 2014, dated 2018).
*1 amine or outer side, *2 acyl side, *3 side chain or, on linkers, in order; H or OH if unused. Where a SMILES comes first, the peptide text is derived from it. Bridges are numbered along the chain shown (N, C = ends). Roman numbers before positions name the chains, in order. Side-chain parts run from the residue outwards. [ ]: non-standard residue; d: D form. The star is where a group is joined. C18 diacid = O=C(O)CCCCCCCCCCCCCCCCC(=O)*; γGlu = O=C(O)[C@H](CCC(=O)[*:2])N[*:1]; Desaminohistidyl = O=C(CCc1c[nH]cn1)*; Ac4c = NC1(C(=O)O)CCC1; AEEA = NCCOCCOCC(=O)O; Aib = CC(C)(N)C(=O)O

Target: T1, human GLP-1 receptor (Homo sapiens, UniProt P43220)
T1 construct: expressed in transfected cells; host or cells: membranes of BHK cells, parent line BHKTS13, clone FCW467-12A
Assay: Assay (II)(a): GLP-1 receptor binding, [125I]GLP-1 displacement, SPA on BHK membranes
Details: displacement of [125I]GLP-1, membranes with human GLP-1 receptor; read-out: IC50 GLP-1R
Summary of the method: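 Membranes from BHK cells expressing human GLP-1 receptor with WGA SPA beads, [125I]GLP-1(7-36)NH2 (480 pM added solution) and compound in HEPES pH 7.4 buffer with EGTA, MgCl2, Tween 20. Incubated 2 h at 30° C; SPA counts fitted by non-linear regression to IC50 in nM.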

T1 sequence (P43220 24-463): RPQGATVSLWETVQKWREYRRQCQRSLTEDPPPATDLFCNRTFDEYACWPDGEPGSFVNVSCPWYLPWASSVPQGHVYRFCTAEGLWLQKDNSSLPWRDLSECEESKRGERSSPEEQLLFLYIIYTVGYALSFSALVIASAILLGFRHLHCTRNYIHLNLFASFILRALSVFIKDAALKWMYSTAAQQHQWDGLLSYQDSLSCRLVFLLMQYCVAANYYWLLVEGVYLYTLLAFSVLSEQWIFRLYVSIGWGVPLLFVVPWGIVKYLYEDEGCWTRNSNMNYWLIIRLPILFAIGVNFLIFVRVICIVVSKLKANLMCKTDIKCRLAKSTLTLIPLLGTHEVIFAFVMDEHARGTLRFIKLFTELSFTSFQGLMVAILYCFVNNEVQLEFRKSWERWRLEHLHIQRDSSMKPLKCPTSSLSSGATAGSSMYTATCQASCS

## CC[C@H](C)[C@H](NC(=O)[C@H](Cc1ccccc1)NC(=O)[C@H](CCC(=O)O)NC(=O)[C@H](CCCNC(=N)N)NC(=O)[C@H](C)NC(=O)[C@H](C)NC(=O)[C@H](CCC(N)=O)NC(=O)CNC(=O)[C@H](CCC(=O)O)NC(=O)[C@H](CC(C)C)NC(=O)[C@H](Cc1ccc(O)cc1)NC(=O)[C@H](CCCNC(=N)N)NC(=O)[C@H](CO)NC(=O)[C@@H](NC(=O)[C@H](CC(=O)O)NC(=O)[C@H](CO)NC(=O)[C@@H](NC(=O)[C@H](Cc1ccccc1)NC(=O)[C@@H](NC(=O)CNC(=O)[C@H](Cc1c[nH]cn1)NC(=O)C(C)(C)NC(=O)CCc1c[nH]cn1)[C@@H](C)O)[C@@H](C)O)C(C)C)C(=O)N[C@@H](C)C(=O)N[C@@H](Cc1c[nH]c2ccccc12)C(=O)N[C@@H](CC(C)C)C(=O)N[C@@H](CC(C)C)C(=O)N[C@@H](CCCCNC(=O)CNC(=O)[C@H](CO)NC(=O)[C@H](CCC(=O)O)NC(=O)CNC(=O)[C@H](CO)NC(=O)CC[C@H](NC(=O)CC[C@H](NC(=O)CCCCCCCCCCCCCCCCC(=O)O)C(=O)O)C(=O)O)C(=O)N[C@H](C(N)=O)[C@@H](C)O [Example 8, N^ε34-[2-[[(2S)-2-[[(2S)-4-carboxy-2-[[2-[[(2S)-2-[[(4S)-4-carboxy-4-[[(4S)-4-carboxy-4-(17-carboxyheptadecanoylamino)butanoyl]amino]butanoyl]amino]-3-hydroxypropanoyl]amino]acetyl]amino]butanoyl]amino]-3-hydroxypropanoyl]amino]acetyl]-[Imp7,Aib8,His9,Arg18,Arg26,Leu33,Thr35]-GLP-1-(7-35)-peptide amide] (I: Desaminohistidyl-[Aib]HGTFTSDVSRYLEGQAAREFIAWLLKT-NH2 / II: {C18 diacid-γGlu-γGlu}-SGESG; amide I:27-II:C)
  IC50: 0.9 nM

## CC[C@H](C)[C@H](NC(=O)[C@H](Cc1ccccc1)NC(=O)[C@H](CCC(=O)O)NC(=O)[C@H](CCCNC(=N)N)NC(=O)[C@H](C)NC(=O)[C@H](C)NC(=O)[C@H](CCC(N)=O)NC(=O)[C@H](CCC(=O)O)NC(=O)[C@H](CCC(=O)O)NC(=O)[C@H](CC(C)C)NC(=O)[C@H](Cc1ccc(O)cc1)NC(=O)[C@H](CCCCN)NC(=O)[C@H](CO)NC(=O)[C@@H](NC(=O)[C@H](CC(=O)O)NC(=O)[C@H](CO)NC(=O)[C@@H](NC(=O)[C@H](Cc1ccccc1)NC(=O)[C@@H](NC(=O)CNC(=O)[C@H](Cc1c[nH]cn1)NC(=O)C(C)(C)NC(=O)CCc1c[nH]cn1)[C@@H](C)O)[C@@H](C)O)C(C)C)C(=O)N[C@@H](C)C(=O)N[C@@H](Cc1c[nH]c2ccccc12)C(=O)N[C@@H](CC(C)C)C(=O)N[C@@H](CC(C)C)C(=O)N[C@@H](CCCCNC(=O)COCCOCCNC(=O)COCCOCCNC(=O)CC[C@H](NC(=O)CC[C@H](NC(=O)CCCCCCCCCCCCCCCCC(=O)O)C(=O)O)C(=O)O)C(=O)N[C@H](C(N)=O)[C@@H](C)O [Example 5, N^ε34-[2-[2-[2-[[2-[2-[2-[[(4S)-4-carboxy-4-[[(4S)-4-carboxy-4-(17-carboxyheptadecanoylamino)butanoyl]amino]butanoyl]amino]ethoxy]ethoxy]acetyl]amino]ethoxy]ethoxy]acetyl]-[Imp7,Aib8,His9,Lys18,Glu22,Arg26,Leu33,Thr35]-GLP-1-(7-35)-peptide amide] (Desaminohistidyl-[Aib]HGTFTSDVSKYLEEQAAREFIAWLLK([AEEA-AEEA-γGlu-γGlu-C18 diacid])T-NH2)
  IC50: 0.5 nM

## CC[C@H](C)[C@H](NC(=O)[C@H](Cc1ccccc1)NC(=O)[C@H](CCC(=O)O)NC(=O)[C@H](CCCNC(=N)N)NC(=O)[C@H](C)NC(=O)[C@H](C)NC(=O)[C@H](CCCNC(=N)N)NC(=O)CNC(=O)[C@H](CCC(=O)O)NC(=O)[C@H](CC(C)C)NC(=O)[C@H](Cc1ccc(O)cc1)NC(=O)[C@H](CCCCN)NC(=O)[C@H](CO)NC(=O)[C@@H](NC(=O)[C@H](CC(=O)O)NC(=O)[C@H](CO)NC(=O)[C@@H](NC(=O)[C@H](Cc1ccccc1)NC(=O)[C@@H](NC(=O)CNC(=O)[C@H](Cc1c[nH]cn1)NC(=O)[C@H](C)NC(=O)CCc1c[nH]cn1)[C@@H](C)O)[C@@H](C)O)C(C)C)C(=O)N[C@@H](C)C(=O)N[C@@H](Cc1c[nH]c2ccccc12)C(=O)N[C@@H](CC(C)C)C(=O)N[C@@H](CC(C)C)C(=O)N[C@@H](CCCCNC(=O)COCCOCCNC(=O)COCCOCCNC(=O)CC[C@H](NC(=O)CC[C@H](NC(=O)CC[C@H](NC(=O)CCCCCCCCCCCCCCCCC(=O)O)C(=O)O)C(=O)O)C(=O)O)C(=O)N[C@H](C(N)=O)[C@@H](C)O [Example 10, N^ε34-[2-[2-[2-[[2-[2-[2-[[(4S)-4-carboxy-4-[[(4S)-4-carboxy-4-[[(4S)-4-carboxy-4-(17-carboxyheptadecanoylamino)butanoyl]amino]butanoyl]amino]butanoyl]amino]ethoxy]ethoxy]acetyl]amino]ethoxy]ethoxy]acetyl]-[Imp7,His9,Lys18,Arg23,Arg26,Leu33,Thr35]-GLP-1-(7-35)-peptide amide] (Desaminohistidyl-AHGTFTSDVSKYLEGRAAREFIAWLLK([AEEA-AEEA-γGlu-γGlu-γGlu-C18 diacid])T-NH2)
  IC50: 1 nM

## CC[C@H](C)[C@H](NC(=O)[C@H](Cc1ccccc1)NC(=O)[C@H](CCC(=O)O)NC(=O)[C@H](CCCNC(=N)N)NC(=O)[C@H](C)NC(=O)[C@H](C)NC(=O)[C@H](CCC(N)=O)NC(=O)[C@H](CCC(=O)O)NC(=O)[C@H](CCC(=O)O)NC(=O)[C@H](CC(C)C)NC(=O)[C@H](Cc1ccc(O)cc1)NC(=O)[C@H](CCCCN)NC(=O)[C@H](CO)NC(=O)[C@@H](NC(=O)[C@H](CC(=O)O)NC(=O)[C@H](CO)NC(=O)[C@@H](NC(=O)[C@H](Cc1ccccc1)NC(=O)[C@@H](NC(=O)CNC(=O)[C@H](Cc1c[nH]cn1)NC(=O)C(C)(C)NC(=O)CCc1c[nH]cn1)[C@@H](C)O)[C@@H](C)O)C(C)C)C(=O)N[C@@H](C)C(=O)N[C@@H](Cc1c[nH]c2ccccc12)C(=O)N[C@@H](CC(C)C)C(=O)N[C@@H](CC(C)C)C(=O)N[C@@H](CCCCNC(=O)CNC(=O)[C@H](CO)NC(=O)CC[C@H](NC(=O)CC[C@H](NC(=O)CCCCCCCCCCCCCCCCC(=O)O)C(=O)O)C(=O)O)C(=O)N[C@H](C(N)=O)[C@@H](C)O [Example 4, N^ε34-[2-[[(2S)-2-[[(4S)-4-carboxy-4-[[(4S)-4-carboxy-4-(17-carboxyheptadecanoylamino)butanoyl]amino]butanoyl]amino]-3-hydroxypropanoyl]amino]acetyl]-[Imp7,Aib8,His9,Lys18,Glu22,Arg26,Leu33,Thr35]-GLP-1-(7-35)-peptide amide] (Desaminohistidyl-[Aib]HGTFTSDVSKYLEEQAAREFIAWLLK([Gly-Ser-γGlu-γGlu-C18 diacid])T-NH2)
  IC50: 0.2 nM

## CC[C@H](C)[C@H](NC(=O)[C@H](Cc1ccccc1)NC(=O)[C@H](CCC(=O)O)NC(=O)[C@H](CCCNC(=N)N)NC(=O)[C@H](C)NC(=O)[C@H](C)NC(=O)[C@H](CCC(N)=O)NC(=O)[C@H](CCC(=O)O)NC(=O)[C@H](CCC(=O)O)NC(=O)[C@H](CC(C)C)NC(=O)[C@H](Cc1ccc(O)cc1)NC(=O)[C@H](CCCCN)NC(=O)[C@H](CO)NC(=O)[C@@H](NC(=O)[C@H](CC(=O)O)NC(=O)[C@H](CO)NC(=O)[C@@H](NC(=O)[C@H](Cc1ccccc1)NC(=O)[C@@H](NC(=O)CNC(=O)[C@H](Cc1c[nH]cn1)NC(=O)C1(NC(=O)CCc2c[nH]cn2)CCC1)[C@@H](C)O)[C@@H](C)O)C(C)C)C(=O)N[C@@H](C)C(=O)N[C@@H](Cc1c[nH]c2ccccc12)C(=O)N[C@@H](CC(C)C)C(=O)N[C@@H](CC(C)C)C(=O)N[C@@H](CCCCNC(=O)CNC(=O)[C@H](CO)NC(=O)[C@H](CCC(=O)O)NC(=O)CNC(=O)[C@H](CO)NC(=O)CC[C@H](NC(=O)CC[C@H](NC(=O)CCCCCCCCCCCCCCCCC(=O)O)C(=O)O)C(=O)O)C(=O)N[C@H](C(N)=O)[C@@H](C)O [Example 9, N^ε34-[2-[[(2S)-2-[[(2S)-4-carboxy-2-[[2-[[(2S)-2-[[(4S)-4-carboxy-4-[[(4S)-4-carboxy-4-(17-carboxyheptadecanoylamino)butanoyl]amino]butanoyl]amino]-3-hydroxypropanoyl]amino]acetyl]amino]butanoyl]amino]-3-hydroxypropanoyl]amino]acetyl]-[Imp7,Acb8,His9,Lys18,Glu22,Arg26,Leu33,Thr35]-GLP-1-(7-35)-peptide amide] (I: Desaminohistidyl-[Ac4c]HGTFTSDVSKYLEEQAAREFIAWLLKT-NH2 / II: {C18 diacid-γGlu-γGlu}-SGESG; amide I:27-II:C)
  IC50: 0.1 nM

## CC[C@H](C)[C@H](NC(=O)[C@H](Cc1ccccc1)NC(=O)[C@H](CCC(=O)O)NC(=O)[C@H](CCCNC(=N)N)NC(=O)[C@H](C)NC(=O)[C@H](C)NC(=O)[C@H](CCC(N)=O)NC(=O)[C@H](CCC(=O)O)NC(=O)[C@H](CCC(=O)O)NC(=O)[C@H](CC(C)C)NC(=O)[C@H](Cc1ccc(O)cc1)NC(=O)[C@H](CCCCN)NC(=O)[C@H](CO)NC(=O)[C@@H](NC(=O)[C@H](CC(=O)O)NC(=O)[C@H](CO)NC(=O)[C@@H](NC(=O)[C@H](Cc1ccccc1)NC(=O)[C@@H](NC(=O)CNC(=O)[C@H](Cc1c[nH]cn1)NC(=O)C(C)(C)NC(=O)CCc1c[nH]cn1)[C@@H](C)O)[C@@H](C)O)C(C)C)C(=O)N[C@@H](C)C(=O)N[C@@H](Cc1c[nH]c2ccccc12)C(=O)N[C@@H](CC(C)C)C(=O)N[C@@H](CC(C)C)C(=O)N[C@@H](CCCCNC(=O)CC[C@H](NC(=O)CC[C@H](NC(=O)CC[C@H](NC(=O)CC[C@H](NC(=O)CCCCCCCCCCCCCCCCC(=O)O)C(=O)O)C(=O)O)C(=O)O)C(=O)O)C(=O)N[C@H](C(N)=O)[C@@H](C)O [Example 6, N^ε34-[(4S)-4-carboxy-4-[[(4S)-4-carboxy-4-[[(4S)-4-carboxy-4-[[(4S)-4-carboxy-4-(17-carboxyheptadecanoylamino)butanoyl]amino]butanoyl]amino]butanoyl]amino]butanoyl]-[Imp7,Aib8,His9,Lys18,Glu22,Arg26,Leu33,Thr35]-GLP-1-(7-35)-peptide amide] (Desaminohistidyl-[Aib]HGTFTSDVSKYLEEQAAREFIAWLLK([γGlu-γGlu-γGlu-γGlu-C18 diacid])T-NH2)
  IC50: 0.3 nM
